# Data reported in the SangsterLogP compilation.
# Assay: method code SF, from Craig, N. (1990). Drug Compendium. In Hansch, C (Ed.), Comprehensive Medicinal Chemistry. Pergamon Press.
# Conditions: not given
row,Compound,logP
1,CSc1ccc(OCc2ncc([N+](=O)[O-])n2C)cc1,2.5
2,N=C(N)N1CCc2ccccc2C1,0.75
3,CN1CC[C@@]23CCCC[C@@H]2[C@@H]1Cc1ccc(O)cc13,3.11
4,Cc1ncc([N+](=O)[O-])n1CCOC(N)=O,-0.29
5,COc1cc(NS(=O)(=O)c2ccc(N)cc2)ncn1,0.7
6,OC[C@@H](O)[C@H]1O[C@@H]2O[C@H](C(Cl)(Cl)Cl)O[C@@H]2[C@H]1O,1.02
7,CC(C)S(=O)(=O)n1c(N)nc2ccc(/C(=N\O)c3ccccc3)cc21,3.1
8,NCc1ccccc1Sc1ccccc1CO,2.39
9,O=[N+]([O-])c1cnc(-c2ccc(F)cc2)n1CCO,1.33
10,Cc1ncc([N+](=O)[O-])n1CCc1ccncc1,0.06
11,CCC1(CC)C(=O)NCC(C)C1=O (stereo not drawn),0.78
12,CC(C)/N=C(N)/N=C(\N)Nc1ccc(Cl)cc1,2.53
13,NC(=O)CCC/N=C(\c1ccc(Cl)cc1)c1cc(F)ccc1O,2.97
14,COc1cc2c(cc1OC)C(CCCCC1NCCc3cc(OC)c(OC)cc31)NCC2 (stereo not drawn),3.35
15,CCC(=O)O[C@]1(c2ccccc2)CCN(C)C[C@H]1CC,3.61
16,OCCN1CCN([C@@H]2C[C@@H](c3ccc(F)cc3)c3ccc(C(F)(F)F)cc32)CC1,4.39
17,N#Cc1ccccc1OCC(O)CNCCNC(=O)Cc1ccc(O)cc1 (stereo not drawn),0.92
18,CC(=O)[C@H]1CC[C@H]2[C@@H]3C[C@H](C)C4=CC(=O)CC[C@]4(C)[C@H]3C(=O)C[C@]12C,2.75

row,Compound,logP
1,Nc1ccc(S(=O)(=O)c2ccc(N)cc2)cc1,1.03
2,COc1cc(S(C)=O)ccc1-c1nc2ncccc2[nH]1 (stereo not drawn),1.17
3,C[C@@H]1C[C@H]2[C@@H]3C[C@H](F)C4=CC(=O)C=C[C@]4(C)[C@@]3(F)[C@@H](O)C[C@]2(C)[C@H]1C(=O)COC(=O)C(C)(C)C,3.86
4,CN(C)CCN1C(=O)c2ccccc2Nc2cc(Cl)ccc21,3.73
5,CC(=O)O[C@H]1C[C@H](O[C@H]2[C@@H](O)C[C@H](O[C@H]3[C@@H](O)C[C@H](O[C@H]4CC[C@@]5(C)[C@H](CC[C@@H]6[C@@H]5CC[C@]5(C)[C@@H](C7=CC(=O)OC7)CC[C@]65O)C4)O[C@@H]3C)O[C@@H]2C)O[C@H](C)[C@H]1O,1.97
6,Nc1ncn([C@@H]2O[C@H](CO)[C@@H](O)[C@@H]2O)c(=O)n1,-2.17
7,C[C@]12CCC(=O)C=C1CC[C@@H]1[C@@H]2CC[C@@]2(C)[C@H]1CC[C@]2(O)C(=O)CO,2.52
8,CCc1ncc([N+](=O)[O-])n1CCNC(=S)OC,1.46
9,NC(=O)c1csc([C@@H]2O[C@H](CO)[C@@H](O)[C@H]2O)n1,-1.73
10,CN(C)CCC1CN(C)C(=S)c2cnccc2O1 (stereo not drawn),1.08
11,CCN(CC)CCNc1ccc(CO)c2sc3ccccc3c(=O)c12,2.7
12,CCC(O)C(CC(C)N(C)C)(c1ccccc1)c1ccccc1 (stereo not drawn),4.27
13,C=CCC1(C(C)CC)C(=O)NC(=O)NC1=O (stereo not drawn),1.47
14,CCNC1C2CCC(C2)C1c1ccccc1 (stereo not drawn),3.2
15,CCC(OC(C)=O)C(CC(C)N(C)C)(c1ccccc1)c1ccccc1 (stereo not drawn),4.27
16,Cc1ccccc1-n1c(C)nc2ccccc2c1=O,2.5
17,CCN[C@@H](C)Cc1cccc(C(F)(F)F)c1,3.36

# Same assay, conditions: pH 4.9
row,Compound,logD
1,CCOC(=O)[C@H](CCc1ccccc1)N[C@@H](C)C(=O)N1CCC[C@H]1C(=O)O,-0.07
2,CCOC(=O)[C@H](CCc1ccccc1)N[C@H]1CCCN2CCC[C@@H](C(=O)O)N2C1=O,0.55

# Same assay, conditions: pH 7.4
row,Compound,logD
1,CCOC(=O)C=C1SC(N2CCCCC2)C(=O)N1C (stereo not drawn),2.3
